Test results as given in patent US10004732B2 (Novartis AG, priority 2014, dated 2018).
pIC50: −log10 of the molar value.

Columns and labels:
PI 3-kinase alpha [1] = biological target: T1, PI 3-kinase alpha (Homo sapiens, UniProt P42336); test: Kinase Glo Luminescent Kinase Assay (Kglo), assay A; assay type: biochemical; conditions: read-out: Assay A PI3Kα IC50
Target sequence in this assay (P42336 whole entry): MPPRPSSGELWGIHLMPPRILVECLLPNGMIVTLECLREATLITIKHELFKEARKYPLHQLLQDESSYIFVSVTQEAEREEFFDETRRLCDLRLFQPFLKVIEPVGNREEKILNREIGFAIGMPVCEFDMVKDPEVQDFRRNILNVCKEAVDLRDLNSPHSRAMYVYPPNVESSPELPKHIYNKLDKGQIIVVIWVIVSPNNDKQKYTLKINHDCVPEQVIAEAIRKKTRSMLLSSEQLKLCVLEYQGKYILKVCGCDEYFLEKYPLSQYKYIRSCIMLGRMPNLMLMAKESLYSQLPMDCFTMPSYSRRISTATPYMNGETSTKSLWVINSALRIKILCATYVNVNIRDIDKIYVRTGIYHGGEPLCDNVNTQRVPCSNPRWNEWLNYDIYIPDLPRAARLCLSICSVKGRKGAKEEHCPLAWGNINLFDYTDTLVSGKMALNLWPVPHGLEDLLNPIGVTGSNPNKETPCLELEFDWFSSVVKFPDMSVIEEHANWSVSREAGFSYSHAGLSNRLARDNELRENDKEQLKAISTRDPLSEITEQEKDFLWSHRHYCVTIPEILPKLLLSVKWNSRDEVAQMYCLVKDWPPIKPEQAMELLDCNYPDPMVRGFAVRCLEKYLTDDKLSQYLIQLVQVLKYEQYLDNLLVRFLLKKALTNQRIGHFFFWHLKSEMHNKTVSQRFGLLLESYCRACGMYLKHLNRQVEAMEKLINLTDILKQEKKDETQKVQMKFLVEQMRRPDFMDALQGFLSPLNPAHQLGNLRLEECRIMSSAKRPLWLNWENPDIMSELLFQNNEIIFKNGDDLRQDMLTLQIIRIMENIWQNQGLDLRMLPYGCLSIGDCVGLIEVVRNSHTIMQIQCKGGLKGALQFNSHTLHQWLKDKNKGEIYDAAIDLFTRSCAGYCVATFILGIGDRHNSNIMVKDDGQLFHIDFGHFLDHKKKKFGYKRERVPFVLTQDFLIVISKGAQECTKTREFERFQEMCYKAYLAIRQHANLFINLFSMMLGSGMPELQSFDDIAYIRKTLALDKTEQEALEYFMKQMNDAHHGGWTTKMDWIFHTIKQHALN

PI 3-kinase beta [2] = biological target: T2, PI 3-kinase beta (Homo sapiens, UniProt P42338); test: Kinase Glo Luminescent Kinase Assay (Kglo), assay B; assay type: biochemical; conditions: read-out: Assay B PI3Kβ IC50
Target sequence in this assay (P42338 whole entry): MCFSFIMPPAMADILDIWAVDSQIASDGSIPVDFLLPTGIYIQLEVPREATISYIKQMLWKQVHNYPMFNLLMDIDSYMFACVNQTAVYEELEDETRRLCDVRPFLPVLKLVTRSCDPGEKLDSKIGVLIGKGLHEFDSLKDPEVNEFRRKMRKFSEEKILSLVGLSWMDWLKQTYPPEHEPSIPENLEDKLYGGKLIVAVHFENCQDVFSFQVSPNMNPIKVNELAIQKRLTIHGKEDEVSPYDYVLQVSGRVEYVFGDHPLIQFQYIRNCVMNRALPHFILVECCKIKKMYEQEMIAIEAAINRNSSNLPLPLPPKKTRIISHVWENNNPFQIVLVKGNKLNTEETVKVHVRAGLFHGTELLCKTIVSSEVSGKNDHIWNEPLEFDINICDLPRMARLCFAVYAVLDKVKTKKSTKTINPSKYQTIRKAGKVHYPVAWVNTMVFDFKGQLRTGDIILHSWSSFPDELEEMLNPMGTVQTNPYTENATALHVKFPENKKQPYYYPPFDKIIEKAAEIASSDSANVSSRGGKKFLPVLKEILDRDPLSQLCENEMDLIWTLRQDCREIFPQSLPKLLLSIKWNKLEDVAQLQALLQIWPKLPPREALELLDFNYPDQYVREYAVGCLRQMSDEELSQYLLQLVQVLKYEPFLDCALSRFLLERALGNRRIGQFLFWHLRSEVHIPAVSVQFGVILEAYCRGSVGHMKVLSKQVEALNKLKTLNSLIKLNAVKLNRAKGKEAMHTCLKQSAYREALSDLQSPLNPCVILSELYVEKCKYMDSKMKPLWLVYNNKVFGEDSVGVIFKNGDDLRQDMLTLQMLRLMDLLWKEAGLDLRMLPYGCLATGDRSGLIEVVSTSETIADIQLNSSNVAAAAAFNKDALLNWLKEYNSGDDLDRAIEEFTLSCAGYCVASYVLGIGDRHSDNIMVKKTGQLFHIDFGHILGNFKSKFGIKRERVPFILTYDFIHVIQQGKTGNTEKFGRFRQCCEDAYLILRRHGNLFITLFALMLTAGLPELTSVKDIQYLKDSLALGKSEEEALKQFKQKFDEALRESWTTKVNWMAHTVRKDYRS
Target sequence in this assay (P27986 461-568 partner): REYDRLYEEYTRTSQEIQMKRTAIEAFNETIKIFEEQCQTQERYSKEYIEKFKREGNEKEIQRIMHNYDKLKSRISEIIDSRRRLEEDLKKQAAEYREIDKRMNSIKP

PI 3-kinase alpha [3] = biological target: T1, PI 3-kinase alpha; test: Cellular assay H1, p-Akt (S473) in Rat-1 cells, Surefire format; assay type: cell-based; conditions: non-asterisked data: version H1 (Surefire format), Rat-1 cells; read-out: Assay H PI3Kα IC50
Target sequence in this assay (P42336 whole entry): as the sequence (P42336 whole entry) above
Target sequence in this assay (Q63787 whole entry partner): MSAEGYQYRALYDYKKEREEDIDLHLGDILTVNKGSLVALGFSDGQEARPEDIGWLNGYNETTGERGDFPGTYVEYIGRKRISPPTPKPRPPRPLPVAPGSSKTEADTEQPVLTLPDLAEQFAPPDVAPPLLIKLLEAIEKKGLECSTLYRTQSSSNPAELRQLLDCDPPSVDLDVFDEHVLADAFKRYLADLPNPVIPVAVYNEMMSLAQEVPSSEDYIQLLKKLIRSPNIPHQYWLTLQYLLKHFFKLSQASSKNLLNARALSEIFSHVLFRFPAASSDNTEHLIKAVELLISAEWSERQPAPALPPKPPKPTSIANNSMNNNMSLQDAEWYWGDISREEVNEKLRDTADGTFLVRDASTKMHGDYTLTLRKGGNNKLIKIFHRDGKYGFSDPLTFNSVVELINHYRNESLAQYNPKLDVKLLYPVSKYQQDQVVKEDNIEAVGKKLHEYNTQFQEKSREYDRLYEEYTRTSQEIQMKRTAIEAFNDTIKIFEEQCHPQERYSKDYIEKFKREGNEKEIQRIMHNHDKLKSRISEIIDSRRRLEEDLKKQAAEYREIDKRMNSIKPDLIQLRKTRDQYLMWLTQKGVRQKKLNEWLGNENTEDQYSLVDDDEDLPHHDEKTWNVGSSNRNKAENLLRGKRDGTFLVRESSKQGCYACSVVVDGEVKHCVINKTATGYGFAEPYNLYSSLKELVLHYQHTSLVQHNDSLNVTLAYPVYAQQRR

PI 3-kinase delta [4] = biological target: T3, PI 3-kinase delta (Homo sapiens, UniProt O00329); test: TR-FRET Adapta assay, assay F
Target sequence in this assay (O00329 whole entry): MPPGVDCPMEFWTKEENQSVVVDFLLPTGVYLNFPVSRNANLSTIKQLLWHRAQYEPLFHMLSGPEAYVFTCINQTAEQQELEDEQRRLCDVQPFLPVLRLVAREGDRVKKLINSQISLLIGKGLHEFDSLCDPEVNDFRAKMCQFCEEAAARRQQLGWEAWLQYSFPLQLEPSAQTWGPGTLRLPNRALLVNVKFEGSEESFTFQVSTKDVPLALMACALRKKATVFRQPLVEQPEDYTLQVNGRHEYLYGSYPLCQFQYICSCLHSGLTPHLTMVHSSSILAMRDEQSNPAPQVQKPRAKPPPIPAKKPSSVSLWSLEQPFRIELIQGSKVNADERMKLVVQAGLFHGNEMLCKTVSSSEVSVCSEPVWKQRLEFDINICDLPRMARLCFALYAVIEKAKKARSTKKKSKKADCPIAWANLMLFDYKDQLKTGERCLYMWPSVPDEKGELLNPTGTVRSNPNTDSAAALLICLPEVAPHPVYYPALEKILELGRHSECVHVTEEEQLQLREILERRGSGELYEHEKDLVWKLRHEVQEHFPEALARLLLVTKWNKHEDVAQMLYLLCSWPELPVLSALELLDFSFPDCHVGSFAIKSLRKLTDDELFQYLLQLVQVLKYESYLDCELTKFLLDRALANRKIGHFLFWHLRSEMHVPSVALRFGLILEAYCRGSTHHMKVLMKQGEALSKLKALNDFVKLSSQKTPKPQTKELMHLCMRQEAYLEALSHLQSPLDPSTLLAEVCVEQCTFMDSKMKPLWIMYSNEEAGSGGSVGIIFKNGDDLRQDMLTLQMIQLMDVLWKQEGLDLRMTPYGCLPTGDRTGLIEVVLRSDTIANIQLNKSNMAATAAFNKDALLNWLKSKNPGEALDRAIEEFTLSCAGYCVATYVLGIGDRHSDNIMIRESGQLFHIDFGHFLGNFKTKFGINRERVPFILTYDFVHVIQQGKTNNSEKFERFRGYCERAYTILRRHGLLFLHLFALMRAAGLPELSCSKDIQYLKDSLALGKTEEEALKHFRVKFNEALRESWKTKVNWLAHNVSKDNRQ
Target sequence in this assay (P27986 461-568 partner): as the sequence (P27986 461-568 partner) above

PI 4-kinase beta = PI 4-kinase beta (Homo sapiens, UniProt Q9UBF8); test: Kinase Glo Luminescent Kinase Assay (Kglo), assay D; assay type: biochemical; conditions: read-out: Assay D PI4Kβ IC50
Sequence of PI 4-kinase beta (Q9UBF8 whole entry): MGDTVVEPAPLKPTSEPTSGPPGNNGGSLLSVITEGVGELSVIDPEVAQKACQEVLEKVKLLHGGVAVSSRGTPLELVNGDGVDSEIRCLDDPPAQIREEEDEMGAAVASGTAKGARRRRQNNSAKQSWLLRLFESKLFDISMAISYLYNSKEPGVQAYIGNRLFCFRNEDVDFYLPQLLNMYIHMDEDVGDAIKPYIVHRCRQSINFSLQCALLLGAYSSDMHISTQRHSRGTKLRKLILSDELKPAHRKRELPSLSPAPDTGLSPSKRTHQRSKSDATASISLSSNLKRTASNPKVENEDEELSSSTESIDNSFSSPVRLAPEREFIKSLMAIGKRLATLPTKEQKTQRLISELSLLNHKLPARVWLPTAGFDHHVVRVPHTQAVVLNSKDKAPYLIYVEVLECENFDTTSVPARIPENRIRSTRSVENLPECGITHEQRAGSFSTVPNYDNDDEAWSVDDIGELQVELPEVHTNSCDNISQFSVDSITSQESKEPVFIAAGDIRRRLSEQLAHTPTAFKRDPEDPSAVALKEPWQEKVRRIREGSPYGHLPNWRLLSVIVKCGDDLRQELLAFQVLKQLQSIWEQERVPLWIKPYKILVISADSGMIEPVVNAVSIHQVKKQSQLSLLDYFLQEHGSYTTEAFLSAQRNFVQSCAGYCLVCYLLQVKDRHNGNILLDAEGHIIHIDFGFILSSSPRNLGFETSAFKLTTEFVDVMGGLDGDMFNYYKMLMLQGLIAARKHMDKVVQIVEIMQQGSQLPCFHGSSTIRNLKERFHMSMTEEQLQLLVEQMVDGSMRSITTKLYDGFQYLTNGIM

Vps34 = Vps34 (Homo sapiens, UniProt Q8NEB9); test: Kinase Glo Luminescent Kinase Assay (Kglo), assay C; assay type: biochemical; conditions: read-out: Assay C VPS34 IC50
[5] = Microsomal clearance assay (M); conditions: intrinsic clearance in rat liver microsomes
Protocol: The experiments were performed in 96-well glass plates at 37° C. on an automated Tecan EVO platform. Test compounds at a concentration of 10 mM in pure DMSO were diluted 1:1000 in water to 10 μM. […] Reactions were initiated by the addition of 150 μL of a cofactor solution containing 2 mM NADPH.

PI 3-kinase gamma [6] = biological target: T4, PI 3-kinase gamma (Homo sapiens, UniProt P48736); test: TR-FRET Adapta assay, assay E; assay type: biochemical; conditions: read-out: Assay E PI3Kγ IC50
[7] = tested on: IL-8-induced neutrophil shape change in human whole blood; test: Whole blood neutrophil shape change assay (L); assay type: cell-based; conditions: Homo sapiens, Neutrophil, IL-8, human whole blood, read-out: Assay L WBSC IC50
PI 3-kinase beta [8] = biological target: T2, PI 3-kinase beta; test: Cellular assay I1, p-Akt (S473) in Rat-1 cells, Surefire format; assay type: cell-based; conditions: non-asterisked data: version I1 (Surefire format), Rat-1 cells; read-out: Assay I PI3Kβ IC50
PI 3-kinase delta [9] = biological target: T3, PI 3-kinase delta; test: Cellular assay J1, p-Akt (S473) in Rat-1 cells, Surefire format; assay type: cell-based; conditions: non-asterisked data: version J1 (Surefire format), Rat-1 cells; read-out: Assay J PI3Kδ IC50
Target sequence in this assay (O00329 whole entry): as the sequence (O00329 whole entry) above
Target sequence in this assay (Q63787 whole entry partner): as the sequence (Q63787 whole entry partner) above

PI 3-kinase gamma [10] = biological target: T4, PI 3-kinase gamma; test: Cellular U937 AKT assay K1 (MSD); assay type: cell-based; conditions: U937 cells, K1 format; read-out: Assay K1 PI3Kγ IC50
mTOR = mTOR (Homo sapiens, UniProt P42345); test: Lanthascreen kinase binding assay, assay G; conditions: read-out: Assay G mTOR IC50
Protocol: Lanthascreen™ Kinase Binding Assay for mTOR (G)
Binding of an inhibitor to the kinase competes for binding with the tracer, resulting in a loss of FRET.
50 nL of compound dilutions were dispensed onto white 384-well small volume polystyrene plate.

| Structure (SMILES) | pIC50 (PI 3-kinase alpha [1]) | pIC50 (PI 3-kinase beta [2]) | pIC50 (PI 3-kinase alpha [3]) | pIC50 (PI 3-kinase delta [4]; read-out: Assay F PI3Kδ IC50) | pIC50 (PI 4-kinase beta) | pIC50 (Vps34) | Assay M RLM CI(int) [5] [µL/min/mg] | pIC50 (PI 3-kinase gamma [6]) | pIC50 [7] | pIC50 (PI 3-kinase beta [8]) | pIC50 (PI 3-kinase delta [9]) | pIC50 (PI 3-kinase gamma [10]) | pIC50 (mTOR) | IC50 (PI 3-kinase delta [4]; Assay F PI3Kδ IC50 (μM)) [µM] | pIC50 (PI 3-kinase delta [4]) |
| --- | --- | --- | --- | --- | --- | --- | --- | --- | --- | --- | --- | --- | --- | --- | --- |
| Cc1ccc(S(=O)(=O)NCC2(C)COC2)cc1-c1cnc(N)c(-c2cn(C)nc2C)n1 [Example 17, 3-[5-Amino-6-(1,3-dimethyl-1H-pyrazol-4-yl)-pyrazin-2-yl]-4-methyl-N-(3-methyl-oxetan-3-ylmethyl)-benzenesulfonamide] | 6.66 | 6.05 | 5.55 | 6.23 | 5.08 | < 5.00 | 34 | 8.00 | 6.78 | 5.08 | 5.72 | 7.29 | 5.21 | – | – |
| Cc1ccc(S(=O)(=O)NCCC(C)(C)O)cc1-c1cnc(N)c(-c2cnn(CC(F)(F)F)c2)n1 [Example 130, 3-(5-Amino-6-(1-(2,2,2-trifluoroethyl)-1H-pyrazol-4-yl)pyrazin-2-yl)-N-(3-hydroxy-3-methylbutyl)-4-methylbenzenesulfonamide] | 6.82 | 5.55 | 5.79 | 6.74 | 5.15 | < 5.04 | 62 | 7.92 | 6.13 | 5.34 | 5.92 | 7.19 | 5.29 | – | – |
| Cc1ccc(S(=O)(=O)N[C@H]2CC[C@](C)(O)CC2)cc1-c1cnc(N)c(-n2cncn2)n1 [Example 69a, 3-(5-amino-6-(1H-1,2,4-triazol-1-yl)pyrazin-2-yl)-N-((1r,4r)-4-hydroxy-4-methylcyclohexyl)-4-methylbenzenesulfonamide] | 6.41 | 5.46 | 5.48 | – | < 5.00 | < 5.00 | 49 | 7.42 | 5.94 | 5.35 | 5.58 | 6.99 | 5.04 | 0.53 | – |
| Cc1ccc(S(=O)(=O)NOCC(C)(C)O)cc1-c1cnc(N)c(-c2cn(C)nc2C)n1 [Example 125, 3-(5-Amino-6-(1,3-dimethyl-1H-pyrazol-4-yl)pyrazin-2-yl)-N-(2-hydroxy-2-methylpropoxy)-4-methylbenzenesulfonamide] | 6.55 | 5.22 | 5.55 | 6.89 | 5.12 | < 5.00 | 8 | 7.00 | 6.06 | 5.46 | 6.64 | 7.29 | < 5.00 | – | – |
| Cc1ccc(S(=O)(=O)NC2CCC(F)(F)CC2)cc1-c1cnc(N)c(-c2cnn(C)c2)n1 [Example 54, 3-(5-Amino-6-(1-methyl-1H-pyrazol-4-yl)pyrazin-2-yl)-N-(4,4-difluorocyclohexyl)-4-methylbenzenesulfonamide] | 6.72 | 6.11 | 5.77 | 6.96 | < 5.04 | < 5.04 | 141 | 7.77 | 5.70 | 5.13 | 5.69 | 6.85 | 5.32 | – | – |
| Cc1ccc(S(=O)(=O)NOCC(C)(C)O)cc1-c1cnc(N)c(-n2cncn2)n1 [Example 31, 3-(5-Amino-6-[1,2,4]triazol-1-yl-pyrazin-2-yl)-N-(2-hydroxy-2-methyl-propoxy)-4-methyl-benzenesulfonamide] | 6.80 | 5.70 | 5.98 | 6.92 | 5.36 | < 5.02 | 37 | 7.57 | 6.04 | 5.60 | 5.99 | 7.40 | 5.42 | – | – |
| CCn1cc(-c2nc(-c3cc(S(=O)(=O)NCCC(C)(C)O)ccc3C)cnc2N)cn1 [Example 119.34] | 6.74 | 5.45 | 5.64 | 6.66 | 5.37 | < 5.04 | 49 | 7.89 | 5.83 | 5.13 | 5.90 | 7.39 | 5.18 | – | – |
| Cc1cn(-c2nc(-c3cc(S(=O)(=O)N[C@H]4CC[C@H](O)CC4)ccc3C)cnc2N)cn1 [Example 56, Trans-3-(5-Amino-6-(4-methyl-1H-imidazol-1-yl)pyrazin-2-yl)-N-(-4-hydroxycyclohexyl)-4-methylbenzenesulfonamide] | 6.54 | 5.76 | 5.36 | 7.10 | 5.14 | 5.45 | 24 | 7.72 | 6.68 | 5.23 | 5.51 | 6.89 | 5.62 | – | – |
| Cc1cc(-c2nc(-c3cc(S(=O)(=O)N[C@H]4CC[C@H](O)CC4)ccc3C)cnc2N)ccn1 [Example 135, 3-(5-Amino-6-(2-methylpyridin-4-yl)pyrazin-2-yl)-N-((1r,4r)-4-hydroxycyclohexyl)-4-methylbenzenesulfonamide] | 6.74 | 5.28 | 5.11 | – | 5.38 | < 5.02 | 30 | 7.29 | 6.44 | 5.06 | 5.03 | 7.20 | 5.36 | – | 5.77 |
| Cc1ncc(-c2nc(-c3cc(S(=O)(=O)N4CCNC(C(F)(F)F)C4)ccc3C)cnc2N)s1 (centres unmarked) [Example 118, 5-(2-Methyl-5-(3-(trifluoromethyl)piperazin-1-ylsulfonyl)phenyl)-3-(2-methylthiazol-5-yl)pyrazin-2-amine] | 7.52 | 6.33 | 6.20 | 6.89 | 5.33 | 5.84 | 264 | 7.96 | 6.05 | 5.80 | 6.28 | 6.99 | 6.34 | – | – |
| CCCc1noc(-c2nc(-c3cc(S(=O)(=O)N[C@H]4CC[C@H](O)CC4)ccc3C)cnc2N)n1 [Example 140, Trans-3-[5-Amino-6-(3-propyl-[1,2,4]oxadiazol-5-yl)-pyrazin-2-yl]-N-(4-hydroxy-cyclohexyl)-4-methyl-benzene sulfonamide] | 6.62 | 5.15 | 5.95 | 7.05 | < 5.04 | < 5.04 | 82 | 7.80 | 6.09 | 5.20 | 6.08 | 7.29 | 5.05 | – | – |
| COc1ccncc1-c1nc(-c2cc(S(=O)(=O)NCCC(C)(C)O)ccc2C)cnc1N [Example 119.2] | 6.35 | < 5.04 | 5.56 | 6.60 | < 5.04 | < 5.04 | 101 | 7.30 | 5.66 | 5.39 | 5.62 | 6.48 | < 5.04 | – | – |
| Cc1ccc(S(=O)(=O)NCCC(C)(C)O)cc1-c1cnc(N)c(-c2ccncc2)n1 [Example 119.27] | 6.77 | 5.30 | 6.33 | 6.92 | 5.24 | < 5.04 | 87 | 7.46 | 6.14 | 5.03 | 6.04 | 6.89 | 5.32 | – | – |
| Cc1ccc(S(=O)(=O)NCCC(C)(C)O)cc1-c1cnc(N)c(-c2cn[nH]c2)n1 [Example 119.33] | 6.80 | 6.16 | 5.26 | 6.59 | 6.00 | < 5.04 | 50 | 7.85 | 6.22 | < 5.00 | 5.44 | 6.14 | < 5.04 | – | – |
